In general, hepatocyte CLint refers to a measure of how fast metabolising enzymes remove a compound, apart from limits set by blood flow. The EC50 is the concentration at which the effect is half-maximal. For orientation: IC50 means the concentration needed to halve the response being measured. The low end stands for higher potency, the high end for lower potency. Usually half-life stands for how long it takes for the measured level to halve.

The structures appear in SMILES notation. Where two headings read alike, the source gives them in different places.

The record followed here is patent US12617762B2, “Carboxy derivatives with antiinflamatory properties” (Sitryx Therapeutics Limited, priority 2019, dated 2026).

Series [1] is described as follows: Hepatocyte stability assay, mouse. It is filed as in vitro ADME. As to conditions: mouse, hepatocytes; for hepatocyte CLint at 10 μM: Hepatocyte stability Clint; for half-life at 10 μM: Hepatocyte stability T½. From the text: (§1) Defrosted cryo-preserved hepatocytes (viability >70%) were used to determine the metabolic stability of a compound via calculation of intrinsic clearance (CIint; a measure of the removal of a compound from the liver in the absence of blood flow and cell binding). Clearance data are particularly important for in vitro work as they can be used in combination with in vivo data to predict the half-life and oral bioavailability of a drug.
(§2) The metabolic stability in hepatocytes assay involves a time-dependent reaction using both positive and negative controls. The cells were pre-incubated at 37° C. then spiked with test compound (and positive control); samples were taken at pre-determined time intervals and were analysed to monitor the change in concentration of the initial drug compound over 60 minutes. A buffer incubation reaction (with no hepatocytes present) acted as a negative control and two cocktail solutions, containing compounds with known high and low clearance values (verapamil/7-hydroxycoumarin and propranolol/diltiazem), acted as positive controls. • 1. The assay was run with a cell concentration of 0.5×10^6 cells/mL in Leibovitz buffer. • 2. All compounds and controls were run in duplicate. • 3. Compound concentration was 10 μM. • 4. All compounds and controls were incubated with both cells and buffer to show turnover was due to hepatic metabolism. • 5. All wells on the incubation plate had 326.7 μL of either cells or buffer added. • 6. Prior to assay, cell and buffer-only incubation plates were preincubated for 10 mins at 37° C. • 7. The assay was initiated by adding compounds, 3.3 μL of 1 mM in 10% DMSO—90% Buffer; final DMSO concentration was 0.1%. • 8. Samples were taken at regular timepoints (0, 5, 10, 20, 40, 60 min) until 60 mins. • 9. Sample volume was 40 μL and was added to 160 μL of crash solvent (acetonitrile with internal standard) and stored on ice. • 10. At the end of the assay, the crash plates were centrifuged at 3500 rpm for 20 mins at 4° C. • 11. 80 μL of clear supernatant was removed and mixed with 80 μL of deionised water before being analysed by LC-MS/MS.
(§3) Raw LC-MS/MS data was exported to, and analysed in, Microsoft Excel for determination of intrinsic clearance. The percentage remaining of a compound was monitored using the peak area of the initial concentration as 100%. Intrinsic clearance and half-life values were calculated using a graph of the natural log of percentage remaining versus the time of reaction in minutes.

The subject of series [2] is NRF2 (nuclear factor erythroid 2-related factor 2). Briefly: NRF2 +/-GSH activation assay (DiscoverX PathHunter NRF2 translocation kit, U2OS cells). It is filed as cell-based. The conditions noted are these: for NRF2 activation +GSH Emax / NRF2 activation −GSH Emax: normalised to DMF high control. The essentials:
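U2OS PathHunter eXpress cells, 24 h post-plating, treated with compound ±GSH (+GSH arm: 30 min compound–GSH pre-incubation, 6 mM working GSH), then 6 h at 37 °C. NRF2 nuclear translocation read by enzyme-fragment-complementation chemiluminescence; % activation normalised to DMF high and untreated low controls.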

Series [3] has as its system IL-1β cytokine output from THP-1s. Briefly: THP-1 AlphaLISA IL-1β cytokine inhibition assay. The conditions noted are these: Homo sapiens, THP-1, differentiated THP-1 cells, LPS then nigericin. It is filed as cell-based. The essentials:
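THP-1 cells differentiated with PMA for 72 h, pre-incubated with compound 30 min, then LPS-primed 24 h and Nigericin-stimulated 1 h (37° C./5% CO2). Supernatant IL-1β measured by AlphaLISA; percentage inhibition normalised to +LPS (high) and −LPS (low) plate controls.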
A general note: Bead proximity is the source of the signal in Alpha formats.

A short description of series [4]: Hepatocyte stability assay, human. It is filed as in vitro ADME. As to conditions: human, hepatocytes; for hepatocyte CLint at 10 μM: Hepatocyte stability Clint; for half-life at 10 μM: Hepatocyte stability T½.
Excerpt: as §1, §2, §3

[5] abbreviates: +GSH, 30 minute compound-GSH pre-incubation, read-out: NRF2 activation +GSH EC50.
Setting [6] is: −GSH, U2OS PathHunter cells, 6 hours compound treatment, read-out: NRF2 activation −GSH EC50.

In the case of `C=C(Cc1ccccc1Cl)C(=O)O` [2-(2-chlorobenzyl)acrylic acid, reference compound], the hepatocyte CLint at 10 μM in series [1] turned out to be 95 µL/min/1e6 cells; in series [4], 21 µL/min/1e6 cells. Moreover, the EC50 in series [2] (setting [5]) and in series [2] (setting [6]) was greater than 100 µM each time. For the same compound, in series [2] (+GSH), the “NRF2 activation +GSH Emax” value worked out at 9%. Also, in series [2] (−GSH), the “NRF2 activation −GSH Emax” value was 2%. The compound further displayed an IC50 in series [3] greater than 100 µM.
On to `C=C(Cc1nnc(CCCCCCCC)o1)C(=O)O` [Example 2, 2-((5-octyl-1,3,4-oxadiazol-2-yl)methyl)acrylic acid], for which the hepatocyte CLint at 10 μM in series [1] came out at 74 µL/min/1e6 cells; in series [4] it was 95 µL/min/1e6 cells. The half-life at 10 μM in series [1] was determined as 19 min; in series [4] it was 15 min. Moreover, the EC50 came out at 26.8 µM in series [2] (setting [5]) and 19.1 µM in series [2] (setting [6]). For the same compound, in series [2] (+GSH), the “NRF2 activation +GSH Emax” value came out at 169%. Also, the “NRF2 activation −GSH Emax” value in series [2] (−GSH) was determined as 176%. This compound gave an IC50 in series [3] of 36.8 µM.
Turning to `C=C(Cc1nc(Cc2ccc(Cl)cc2)no1)C(=O)O` [Example 4, 2-((3-(4-chlorobenzyl)-1,2,4-oxadiazol-5-yl)methyl)acrylic acid], the hepatocyte CLint at 10 μM was 13 µL/min/1e6 cells in series [1] and less than 3 µL/min/1e6 cells in series [4]. Moreover, the half-life at 10 μM in series [1] is 93 min; in series [4], greater than 460 min. In addition, the EC50 in series [2] (setting [5]) was greater than 100 µM; in series [2] (setting [6]), 40.5 µM. In addition, in series [2] (+GSH), the “NRF2 activation +GSH Emax” value turned out to be 23%. For the same compound, in series [2] (−GSH), the “NRF2 activation −GSH Emax” value stood at 47%. Half-maximal inhibition in series [3] (IC50) required 49.3 µM.
Consider `C=C(Cc1nc(C2(c3ccc(C4CCCC4)cc3)CC2)no1)C(=O)O` [Example 115], for which, in series [1], the intrinsic metabolic clearance (hepatocyte CLint) at 10 μM turned out to be 87 µL/min/1e6 cells and the half-life at 10 μM is 15 min. In series [3], this compound came in with a half-maximal inhibitory concentration (IC50) of 7.9 µM. In series [4], the hepatocyte CLint at 10 μM is 28 µL/min/1e6 cells and the half-life at 10 μM came out at 55 min.
As for `C=C(Cc1ccc(CCCCCCCC)nn1)C(=O)O` [Example 116], the intrinsic clearance (hepatocyte CLint) at 10 μM in series [1] was found to be 290 µL/min/1e6 cells; in series [4], 60 µL/min/1e6 cells. Also, the half-life at 10 μM in series [1] amounted to 5 min; in series [4] it was 25 min. Further, in series [3], half-maximal inhibition (IC50) was put at 27.9 µM.
In the same order, the values of `C=C(Cc1nc(C2(c3ccc(I)cc3)CC2)no1)C(=O)O` [Example 117, 2-((3-(1-(4-iodophenyl)cyclopropyl)-1,2,4-oxadiazol-5-yl)methyl)acrylic acid] are 183 µL/min/1e6 cells, 36 µL/min/1e6 cells, 7 min, 43 min and 3.4 µM.
Turning to `C=C(Cc1nc(C(F)(F)c2ccc(I)cc2)no1)C(=O)O` [Example 120, 2-((3-(difluoro(4-iodophenyl)methyl)-1,2,4-oxadiazol-5-yl)methyl)acrylic acid], the results for the intrinsic clearance (hepatocyte CLint) at 10 μM in series [1] and in series [4] were 66 µL/min/1e6 cells and 10 µL/min/1e6 cells, respectively. Also, the half-life at 10 μM was found to be 20 min in series [1] and 154 min in series [4]. The same compound registered an IC50 in series [3] of 3.6 µM.
In the same order, the values of `C=C(Cc1nc(C(F)(F)c2ccc(S(F)(F)(F)(F)F)cc2)no1)C(=O)O` [Example 124, 2-((3-(difluoro(4-(pentafluoro-λ^6-sulfaneyl)phenyl)methyl)-1,2,4-oxadiazol-5-yl)methyl)acrylic acid] are 55 µL/min/1e6 cells, 14 µL/min/1e6 cells, 27 min, 105 min and 16.6 µM.
In the same order, the values of `C=C(Cc1nc(Cc2ccc(CCCC)cc2)co1)C(=O)O` [Example 127, 2-((4-(4-butylbenzyl)oxazol-2-yl)methyl)acrylic acid] are 478 µL/min/1e6 cells, 245 µL/min/1e6 cells, 3 min, 6 min and 14.6 µM.
As for `C=C(Cc1nc(Cc2ccc(C3CCC3)cc2)no1)C(=O)O` [Example 128, 2-((3-(4-cyclobutylbenzyl)-1,2,4-oxadiazol-5-yl)methyl)acrylic acid], in series [1], the intrinsic metabolic clearance (hepatocyte CLint) at 10 μM turned out to be 256 µL/min/1e6 cells and the half-life at 10 μM worked out at 6 min. Moreover, half-maximal inhibition in series [3] (IC50) was put at 26.3 µM. For the same compound, in series [4], the intrinsic metabolic clearance (hepatocyte CLint) at 10 μM came out at 49 µL/min/1e6 cells and the half-life at 10 μM came out at 30 min.
In the same order, the values of `C=C(Cc1nc(-c2ccc(OCCCC)c(F)c2)no1)C(=O)O` [Example 129, 2-((3-(4-butoxy-3-fluorophenyl)-1,2,4-oxadiazol-5-yl)methyl)acrylic acid] are greater than 460 µL/min/1e6 cells, less than 3 min, 20.6 µM, 67 µL/min/1e6 cells and 22 min.
In the same order, the values of `C=C(Cc1nc(C2(c3ccc(C4CCC4)cc3)CC2)no1)C(=O)O` [Example 131, 2-((3-(1-(4-cyclobutylphenyl)cyclopropyl)-1,2,4-oxadiazol-5-yl)methyl)acrylic acid] are 139 µL/min/1e6 cells, 11 min, 7.9 µM, 34 µL/min/1e6 cells and 43 min.
In the same order, the values of `C=C(Cc1nc(Cc2cc(Cl)c(F)c(Cl)c2)no1)C(=O)O` [Example 134, 2-((3-(3,5-dichloro-4-fluorobenzyl)-1,2,4-oxadiazol-5-yl)methyl)acrylic acid] are 17 µL/min/1e6 cells, 75 min, 15.8 µM, 13 µL/min/1e6 cells and 112 min.
With `C=C(Cc1nc(C2(c3ccc(Br)c(Cl)c3)CC2)no1)C(=O)O` [Example 138, 2-((3-(1-(4-bromo-3-chlorophenyl)cyclopropyl)-1,2,4-oxadiazol-5-yl)methyl)acrylic acid], in series [1], the hepatocyte CLint at 10 μM is greater than 460 µL/min/1e6 cells and the half-life at 10 μM is less than 3 min. Besides, in series [3], inhibition was half-maximal at 3 µM (IC50). Further, in series [4], the hepatocyte CLint at 10 μM worked out at 96 µL/min/1e6 cells and the half-life at 10 μM turned out to be 15 min.
In the same order, the values of `C=C(Cc1nc(Cc2ccc(C3(CCC)CC3)cc2)no1)C(=O)O` [Example 147, 2-((3-(4-(1-propylcyclopropyl)benzyl)-1,2,4-oxadiazol-5-yl)methyl)acrylic acid] are greater than 460 µL/min/1e6 cells, less than 3 min, 29.9 µM, 67 µL/min/1e6 cells and 22 min.
In the same order, the values of `C=C(Cc1nc(C(F)(F)c2ccc(C)c(Cl)c2)no1)C(=O)O` [Example 151, 2-((3-((3-chloro-4-methylphenyl)difluoromethyl)-1,2,4-oxadiazol-5-yl)methyl)acrylic acid] are 105 µL/min/1e6 cells, 19 min, 22.7 µM, 53 µL/min/1e6 cells and 23 min.
Turning to `C=C(Cc1nc(C(F)(F)c2cc(Cl)c(F)c(Cl)c2)no1)C(=O)O` [Example 153, 2-((3-((3,5-dichloro-4-fluorophenyl)difluoromethyl)-1,2,4-oxadiazol-5-yl)methyl)acrylic acid], in series [1], the hepatocyte CLint at 10 μM is 44 µL/min/1e6 cells and the half-life at 10 μM stood at 34 min. The IC50 in series [3] is 17.3 µM. In addition, in series [4], the hepatocyte CLint at 10 μM stood at 23 µL/min/1e6 cells and the half-life at 10 μM came out at 62 min.
In the case of `C=C(Cc1nc(C(F)(F)c2ccc(Br)c(Cl)c2)no1)C(=O)O` [Example 154, 2-((3-((4-bromo-3-chlorophenyl)difluoromethyl)-1,2,4-oxadiazol-5-yl)methyl)acrylic acid], in series [1], the intrinsic metabolic clearance (hepatocyte CLint) at 10 μM came out at 203 µL/min/1e6 cells and the half-life at 10 μM came out at 7 min. The compound further displayed a half-maximal inhibitory concentration (IC50) in series [3] of 9.5 µM. Also, in series [4], the hepatocyte CLint at 10 μM was 41 µL/min/1e6 cells and the half-life at 10 μM turned out to be 35 min.
